This is an account of results in patent US12258327B2, “5-membered heteroaryl-containing aminopyridine compounds as EGFR inhibitors” (YUHAN CORPORATION, priority 2021, dated 2025).

Read-outs that look alike come from different tables or passages of the source.

For assay [1], the target named is EGFR L858R/T790M/C797S (Homo sapiens, UniProt P00533, C797S/L858R/T790M). In words: Biochemical EGFR kinase assay (Lance Ultra TR-FRET), triple mutant L858R/T790M/C797S. The procedure: (§1) Biochemical EGFR kinase assays were conducted using Lance Ultra time-resolved fluorescence resonance energy transfer (TR-FRET) technology from Perkin-Elmer. Compounds of the invention were initially diluted to 20 mM in 100% DMSO for storage and made into kinase buffer solution to create a compound concentration ranging from 0.003 μM and 10 μM.
Sequence of EGFR L858R/T790M/C797S (P00533 25-1210 T790M/C797S/L858R): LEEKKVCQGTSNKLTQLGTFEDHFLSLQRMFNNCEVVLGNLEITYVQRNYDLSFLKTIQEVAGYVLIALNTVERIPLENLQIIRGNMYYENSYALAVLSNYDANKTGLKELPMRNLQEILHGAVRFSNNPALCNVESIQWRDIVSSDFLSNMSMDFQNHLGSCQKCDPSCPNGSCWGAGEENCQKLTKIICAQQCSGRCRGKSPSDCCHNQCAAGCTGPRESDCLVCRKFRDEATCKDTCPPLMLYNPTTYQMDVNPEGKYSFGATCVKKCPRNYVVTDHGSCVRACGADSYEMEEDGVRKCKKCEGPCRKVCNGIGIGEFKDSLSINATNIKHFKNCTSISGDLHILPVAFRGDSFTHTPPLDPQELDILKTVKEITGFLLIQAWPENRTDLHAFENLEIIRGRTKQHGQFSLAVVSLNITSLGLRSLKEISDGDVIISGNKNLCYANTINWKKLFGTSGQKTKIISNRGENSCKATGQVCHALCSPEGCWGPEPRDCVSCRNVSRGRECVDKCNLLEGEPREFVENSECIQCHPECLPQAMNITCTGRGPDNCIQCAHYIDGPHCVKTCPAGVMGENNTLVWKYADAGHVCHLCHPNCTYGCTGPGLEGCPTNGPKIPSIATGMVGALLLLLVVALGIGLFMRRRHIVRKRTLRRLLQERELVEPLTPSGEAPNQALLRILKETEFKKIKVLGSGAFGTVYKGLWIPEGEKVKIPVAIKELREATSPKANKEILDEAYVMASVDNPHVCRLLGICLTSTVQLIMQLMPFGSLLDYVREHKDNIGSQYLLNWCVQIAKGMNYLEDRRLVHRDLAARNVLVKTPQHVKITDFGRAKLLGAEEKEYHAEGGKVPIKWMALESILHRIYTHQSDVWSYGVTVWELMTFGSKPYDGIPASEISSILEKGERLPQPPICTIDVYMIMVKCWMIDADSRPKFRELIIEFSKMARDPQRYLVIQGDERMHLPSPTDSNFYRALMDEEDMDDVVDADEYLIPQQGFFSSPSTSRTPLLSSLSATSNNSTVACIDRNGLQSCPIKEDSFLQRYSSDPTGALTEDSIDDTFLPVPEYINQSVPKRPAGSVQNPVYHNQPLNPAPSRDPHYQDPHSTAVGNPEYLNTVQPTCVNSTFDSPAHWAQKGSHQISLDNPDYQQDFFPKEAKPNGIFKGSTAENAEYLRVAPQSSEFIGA
(§2) Each kinase reactions were incubated at room temperature for 1 hour and then stopped by the addition of 4 μL of stop solution (10 mM EDTA). The specific Europium-labeled-anti-phosphopeptide antibody (PerkinElmer, AD0069) diluted in LANCE detection buffer was then added to a final concentration of 2 nM. After 60 minutes incubation at room temperature the LANCE signal was measured on an EnVision Multilabel Reader (Perkin-Elmer). Excitation wavelength was set at 320 nm and emission monitored at 615 nm (donor) and 665 nm (acceptor). The IC50 values were determined using GraphPad prism software (GraphPad Software, Inc., San Diego, CA, USA).

The target of assay [2] is EGFR del19/T790M/C797S (Homo sapiens, UniProt P00533, C797S/DEL746-750/T790M). Nature of the assay: Biochemical EGFR kinase assay (Lance Ultra TR-FRET), triple mutant del19/T790M/C797S. The method, then:
as §1, §2
Background: In TR-FRET formats the signal depends on donor and acceptor labels being close together.

Assay [3] deals with EGFR wildtype (WT) (Homo sapiens, UniProt P00533). In words: Biochemical EGFR kinase assay (Lance Ultra TR-FRET), wildtype. The method, then: as §1, §2
Sequence of EGFR wildtype (WT) (P00533 25-1210): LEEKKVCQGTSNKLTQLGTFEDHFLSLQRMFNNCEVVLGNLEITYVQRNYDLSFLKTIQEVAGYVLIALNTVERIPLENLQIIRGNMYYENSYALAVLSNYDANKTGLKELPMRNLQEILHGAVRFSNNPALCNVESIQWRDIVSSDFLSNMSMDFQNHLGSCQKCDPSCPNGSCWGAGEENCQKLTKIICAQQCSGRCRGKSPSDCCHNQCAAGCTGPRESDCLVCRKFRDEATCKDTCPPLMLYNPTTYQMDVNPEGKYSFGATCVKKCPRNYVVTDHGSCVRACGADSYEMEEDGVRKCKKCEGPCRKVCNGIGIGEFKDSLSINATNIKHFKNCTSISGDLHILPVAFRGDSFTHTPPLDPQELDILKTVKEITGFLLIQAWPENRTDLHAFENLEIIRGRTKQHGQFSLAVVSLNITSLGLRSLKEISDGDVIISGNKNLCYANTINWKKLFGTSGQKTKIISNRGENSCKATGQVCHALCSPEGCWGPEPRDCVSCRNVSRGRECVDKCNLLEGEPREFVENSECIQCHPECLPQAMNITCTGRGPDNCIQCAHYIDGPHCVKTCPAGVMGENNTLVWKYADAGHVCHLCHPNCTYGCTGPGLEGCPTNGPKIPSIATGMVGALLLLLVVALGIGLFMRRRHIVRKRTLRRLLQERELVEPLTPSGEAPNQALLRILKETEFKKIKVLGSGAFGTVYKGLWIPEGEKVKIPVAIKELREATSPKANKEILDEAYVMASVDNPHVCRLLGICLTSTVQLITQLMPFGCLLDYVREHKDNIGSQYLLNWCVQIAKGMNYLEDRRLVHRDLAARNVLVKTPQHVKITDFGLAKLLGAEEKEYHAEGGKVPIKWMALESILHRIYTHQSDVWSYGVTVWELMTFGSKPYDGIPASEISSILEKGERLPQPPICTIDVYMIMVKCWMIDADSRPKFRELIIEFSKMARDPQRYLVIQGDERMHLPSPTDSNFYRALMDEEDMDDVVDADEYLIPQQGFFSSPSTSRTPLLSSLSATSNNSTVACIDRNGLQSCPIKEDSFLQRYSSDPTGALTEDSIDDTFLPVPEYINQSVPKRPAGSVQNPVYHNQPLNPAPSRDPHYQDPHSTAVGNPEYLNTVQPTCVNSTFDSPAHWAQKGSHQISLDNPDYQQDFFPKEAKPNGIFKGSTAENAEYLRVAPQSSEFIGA
Assay [4] concerns the target EGFR del19/C797S (Homo sapiens, UniProt P00533, C797S/DEL746-750). Nature of the assay: Biochemical EGFR kinase assay (Lance Ultra TR-FRET), double mutant del19/C797S. The procedure: as §1, §2
The target in assay [5] is EGFR L858R/C797S (Homo sapiens, UniProt P00533, C797S/L858R). Nature of the assay: Biochemical EGFR kinase assay (Lance Ultra TR-FRET), double mutant L858R/C797S. The procedure: as §1, §2
Sequence of EGFR L858R/C797S (P00533 25-1210 C797S/L858R): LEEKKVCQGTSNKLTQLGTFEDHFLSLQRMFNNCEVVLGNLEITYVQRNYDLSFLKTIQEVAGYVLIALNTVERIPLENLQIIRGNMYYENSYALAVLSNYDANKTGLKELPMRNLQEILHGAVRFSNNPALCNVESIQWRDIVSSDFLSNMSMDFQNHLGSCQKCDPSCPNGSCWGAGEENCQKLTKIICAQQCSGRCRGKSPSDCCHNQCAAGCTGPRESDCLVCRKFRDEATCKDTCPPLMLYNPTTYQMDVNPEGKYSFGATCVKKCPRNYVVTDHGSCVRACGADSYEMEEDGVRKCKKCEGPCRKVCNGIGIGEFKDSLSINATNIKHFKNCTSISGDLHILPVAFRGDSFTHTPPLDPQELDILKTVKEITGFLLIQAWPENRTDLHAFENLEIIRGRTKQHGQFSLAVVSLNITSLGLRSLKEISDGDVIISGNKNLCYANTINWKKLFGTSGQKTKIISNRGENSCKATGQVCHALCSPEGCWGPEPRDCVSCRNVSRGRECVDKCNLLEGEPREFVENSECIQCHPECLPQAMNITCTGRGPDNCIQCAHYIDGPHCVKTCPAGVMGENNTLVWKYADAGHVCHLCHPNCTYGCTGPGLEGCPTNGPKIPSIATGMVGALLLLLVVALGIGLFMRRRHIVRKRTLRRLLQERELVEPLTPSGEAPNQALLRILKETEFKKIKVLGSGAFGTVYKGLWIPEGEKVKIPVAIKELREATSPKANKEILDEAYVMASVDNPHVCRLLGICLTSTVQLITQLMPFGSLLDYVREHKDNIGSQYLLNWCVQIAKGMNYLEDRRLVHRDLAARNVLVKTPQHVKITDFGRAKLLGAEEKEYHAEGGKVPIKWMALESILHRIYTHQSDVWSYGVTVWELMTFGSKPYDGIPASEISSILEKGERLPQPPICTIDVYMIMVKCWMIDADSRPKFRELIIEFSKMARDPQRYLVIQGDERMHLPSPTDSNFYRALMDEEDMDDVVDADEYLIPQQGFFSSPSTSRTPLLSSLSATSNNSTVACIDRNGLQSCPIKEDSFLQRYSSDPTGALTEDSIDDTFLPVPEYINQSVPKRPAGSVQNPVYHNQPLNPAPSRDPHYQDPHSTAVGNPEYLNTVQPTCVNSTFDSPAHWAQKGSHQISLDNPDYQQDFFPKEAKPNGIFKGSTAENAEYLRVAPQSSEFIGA
Setting [6] is: IC50 L858R/T790M/C797S (nM) 100 μM ATP, 100 μM ATP.
Setting [7] is: IC50 del19/T790M/C797S (nM) 100 μM ATP, 100 μM ATP.
Setting [8] is: IC50 WT (nM) 100 μM ATP, 100 μM ATP.
[9] abbreviates: IC50 del19/C797S (nM) 100 μM ATP, 100 μM ATP.
The mark [10] stands for this setting: IC50 L858R/C797S (nM) 100 μM ATP, 100 μM ATP.
The mark [11] stands for this setting: Km ATP, read-out: IC50 L858R/T790M/C797S (nM) Km ATP.
Setting [12] is: Km ATP, read-out: IC50 WT (nM) Km ATP.
[13] abbreviates: Km ATP, read-out: IC50 del19/C797S (nM) Km ATP.
[14] abbreviates: Km ATP, read-out: IC50 L858R/C797S (nM) Km ATP.
[15] abbreviates: Km ATP, read-out: IC50 del19/T790M/C797S (nM) Km ATP.
Setting [16] is: Km ATP, read-out: IC50 L858R/T790M/C797S, Km ATP.
[17] abbreviates: Km ATP, read-out: IC50 WT, Km ATP.
Setting [18] is: Km ATP, read-out: IC50 del19/C797S, Km ATP.
The mark [19] stands for this setting: Km ATP, read-out: IC50 L858R/C797S, Km ATP.

Sequence of EGFR del19/T790M/C797S (P00533 with tags, fused parts or gaps DEL746-750/T790M/C797S): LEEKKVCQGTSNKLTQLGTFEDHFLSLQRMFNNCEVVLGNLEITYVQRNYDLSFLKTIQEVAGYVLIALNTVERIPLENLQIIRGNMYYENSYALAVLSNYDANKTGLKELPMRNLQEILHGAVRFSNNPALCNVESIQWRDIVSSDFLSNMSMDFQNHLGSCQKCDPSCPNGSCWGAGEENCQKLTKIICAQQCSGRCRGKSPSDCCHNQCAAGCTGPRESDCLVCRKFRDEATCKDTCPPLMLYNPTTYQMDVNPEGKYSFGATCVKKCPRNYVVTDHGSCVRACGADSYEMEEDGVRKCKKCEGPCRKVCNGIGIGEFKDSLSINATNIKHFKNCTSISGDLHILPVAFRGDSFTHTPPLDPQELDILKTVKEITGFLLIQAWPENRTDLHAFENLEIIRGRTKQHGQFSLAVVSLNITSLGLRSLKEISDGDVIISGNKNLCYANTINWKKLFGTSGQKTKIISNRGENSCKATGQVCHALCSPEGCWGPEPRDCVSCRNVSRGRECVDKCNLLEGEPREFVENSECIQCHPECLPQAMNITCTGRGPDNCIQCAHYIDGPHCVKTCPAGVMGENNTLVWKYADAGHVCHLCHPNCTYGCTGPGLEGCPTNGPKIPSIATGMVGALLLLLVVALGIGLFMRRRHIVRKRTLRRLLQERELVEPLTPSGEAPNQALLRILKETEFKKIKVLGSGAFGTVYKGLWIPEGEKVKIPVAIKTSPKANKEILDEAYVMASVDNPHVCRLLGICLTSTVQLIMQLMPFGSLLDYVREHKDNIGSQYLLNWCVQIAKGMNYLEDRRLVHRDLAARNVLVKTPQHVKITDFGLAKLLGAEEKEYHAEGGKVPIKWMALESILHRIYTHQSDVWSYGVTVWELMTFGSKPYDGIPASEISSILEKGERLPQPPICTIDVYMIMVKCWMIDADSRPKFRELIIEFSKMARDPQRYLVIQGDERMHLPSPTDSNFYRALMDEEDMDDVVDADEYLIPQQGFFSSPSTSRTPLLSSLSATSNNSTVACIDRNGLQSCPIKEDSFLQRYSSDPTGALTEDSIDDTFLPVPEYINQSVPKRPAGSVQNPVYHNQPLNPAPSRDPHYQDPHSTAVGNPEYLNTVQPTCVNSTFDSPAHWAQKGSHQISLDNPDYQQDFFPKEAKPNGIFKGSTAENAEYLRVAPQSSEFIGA

As for `CNC1CCC(Nc2cc(Nc3ccnc(-c4cnn(S(=O)(=O)C5CC5)c4)n3)ncc2-c2ccn(C(F)F)n2)CC1` (stereo not drawn) [Example 16, N^2-(2-(1-(Cyclopropylsulfonyl)-1H-pyrazol-4-yl)pyrimidin-4-yl)-5-(1-(difluoromethyl)-1H-pyrazol-3-yl)-N^4-((1s,4s)-4-(methylamino)cyclohexyl)pyridine-2,4-diamine], the IC50 in assay [1] (setting [6]) is 0.3 nM; in assay [2] (setting [7]), 0.3 nM; in assay [3] (setting [8]) it was 3390 nM; in assay [4] (setting [9]), 2 nM; in assay [5] (setting [10]), 2.1 nM.
Turning to `OCC[C@H]1CC[C@H](Nc2cc(Nc3ccnc(-c4cnn(CC(F)F)c4)n3)ncc2-c2ccn(C(F)F)n2)CC1` [Example 147, 2-((1r,4r)-4-((2-((2-(1-(2,2-Difluoroethyl)-1H-pyrazol-4-yl)pyrimidin-4-yl)amino)-5-(1-(difluoromethyl)-1H-pyrazol-3-yl)pyridin-4-yl)amino)cyclohexyl)ethan-1-ol], the IC50 in assay [1] (setting [11]) was 0.8 nM; in assay [3] (setting [12]), 51.5 nM; in assay [4] (setting [13]), 93.9 nM; in assay [5] (setting [14]) it was 32.6 nM.
For `C[C@]1(O)CC[C@@H](Nc2cc(Nc3ccnc(-c4cnn(S(=O)(=O)C5CC5)c4)n3)ncc2-c2ccn(C(F)(F)F)n2)CC1` [Example 285, (1s,4s)-4-((2-((2-(1-(Cyclopropylsulfonyl)-1H-pyrazol-4-yl)pyrimidin-4-yl)amino)-5-(1-(trifluoromethyl)-1H-pyrazol-3-yl)pyridin-4-yl)amino)-1-methylcyclohexan-1-ol] the same measures were 0.7 nM, 3.2 nM, 2.3 nM and 0.6 nM.
In the case of `C[C@]1(O)CC[C@@H](Nc2cc(Nc3ccnc(-c4cnn(S(=O)(=O)C5CC5)c4)n3)ncc2-n2ccc(OC(F)F)n2)CC1` [Example 187, (1s,4s)-4-((2-((2-(1-(Cyclopropylsulfonyl)-1H-pyrazol-4-yl)pyrimidin-4-yl)amino)-5-(3-(difluoromethoxy)-1H-pyrazol-1-yl)pyridin-4-yl)amino)-1-methylcyclohexan-1-ol], the IC50 in assay [1] (setting [11]) was determined as 0.5 nM; in assay [2] (setting [15]), 0.7 nM; in assay [3] (setting [12]) it was 282 nM; in assay [4] (setting [13]), 15.4 nM.
Take `Cc1nn(CC(F)(F)F)cc1-c1nccc(Nc2cc(N[C@H]3CC[C@@](C)(O)CC3)c(-c3ccn(C(F)(F)F)n3)cn2)n1` [Example 341, (1s,4s)-1-Methyl-4-((2-((2-(3-methyl-1-(2,2,2-trifluoroethyl)-1H-pyrazol-4-yl)pyrimidin-4-yl)amino)-5-(1-(trifluoromethyl)-1H-pyrazol-3-yl)pyridin-4-yl)amino)cyclohexan-1-ol]: the IC50 in assay [1] (setting [16]) stood at 0.9 nM; in assay [3] (setting [17]), 48.4 nM; in assay [4] (setting [18]), 22 nM; in assay [5] (setting [19]), 14.8 nM.
For the compound `Cn1nc(-c2cnc(Nc3ccnc(-c4cnn(CC(F)F)c4)n3)cc2N[C@H]2CC[C@@H](CCO)CC2)cc1C(F)(F)F` [Example 333, 2-((1s,4s)-4-((2-((2-(1-(2,2-Difluoroethyl)-1H-pyrazol-4-yl)pyrimidin-4-yl)amino)-5-(1-methyl-5-(trifluoromethyl)-1H-pyrazol-3-yl)pyridin-4-yl)amino)cyclohexyl)ethan-1-ol], the IC50 in assay [1] (setting [16]) was determined as 2.9 nM; in assay [2] (Km ATP, read-out: IC50 del19/T790M/C797S, Km ATP) it was 4.4 nM; in assay [3] (setting [17]), 61.5 nM; in assay [4] (setting [18]), 16.5 nM.
As to `C[C@]1(O)CC[C@@H](Nc2cc(Nc3ccnc(-c4cnn(S(=O)(=O)C5CC5)c4)n3)ncc2-c2ccn(CC(F)(F)F)n2)CC1` [Example 289, (1s,4s)-4-((2-((2-(1-(Cyclopropylsulfonyl)-1H-pyrazol-4-yl)pyrimidin-4-yl)amino)-5-(1-(2,2,2-trifluoroethyl)-1H-pyrazol-3-yl)pyridin-4-yl)amino)-1-methylcyclohexan-1-ol], the IC50 in assay [3] (setting [8]) is above 10000 nM; in assay [3] (setting [12]) it was 17.4 nM; in assay [4] (setting [9]), 2.7 nM; in assay [5] (setting [10]), 27.4 nM.
On to `O=S(=O)(C1CC1)n1cc(-c2nccc(Nc3cc(N[C@H]4CC[C@@H](NCC(F)F)CC4)c(-c4cc5n(n4)CCCC5)cn3)n2)cn1` [Example 63, N^2-(2-(1-(Cyclopropylsulfonyl)-1H-pyrazol-4-yl)pyrimidin-4-yl)-N^4-((1s,4s)-4-((2,2-difluoroethyl)amino)cyclohexyl)-5-(4,5,6,7-tetrahydropyrazolo[1,5-a]pyridin-2-yl)pyridine-2,4-diamine], for which the IC50 in assay [1] (setting [6]) is 3.3 nM; in assay [1] (setting [11]) it was 0.7 nM; in assay [3] (setting [8]), above 10000 nM; in assay [3] (setting [12]), 4.4 nM; in assay [4] (setting [9]) it was 2.2 nM; in assay [4] (setting [13]), 1.8 nM. Besides, the IC50 in assay [5] (setting [10]) is 7.7 nM; in assay [5] (setting [14]), 2.2 nM.
Consider `C[C@]1(O)CC[C@@H](Nc2cc(Nc3ccnc(-c4cnn(S(=O)(=O)C5CC5)c4)n3)ncc2-c2ccn(C(F)F)n2)CC1` [Example 10, (1s,4s)-4-((2-((2-(1-(Cyclopropylsulfonyl)-1H-pyrazol-4-yl)pyrimidin-4-yl)amino)-5-(1-(difluoromethyl)-1H-pyrazol-3-yl)pyridin-4-yl)amino)-1-methylcyclohexan-1-ol], for which the IC50 in assay [1] (setting [6]) stood at 1.3 nM; in assay [3] (setting [8]), 1060 nM; in assay [4] (setting [9]) it was 3.2 nM; in assay [5] (setting [10]) it was 2.7 nM.
As to `C[C@]1(O)CC[C@@H](Nc2cc(Nc3ccnc(-c4cnn(S(=O)(=O)C5CC5)c4)n3)ncc2-c2cn(C(F)F)cn2)CC1` [Example 273, (1s,4s)-4-((2-((2-(1-(Cyclopropylsulfonyl)-1H-pyrazol-4-yl)pyrimidin-4-yl)amino)-5-(1-(difluoromethyl)-1H-imidazol-4-yl)pyridin-4-yl)amino)-1-methylcyclohexan-1-ol], the IC50 in assay [1] (setting [6]) stood at 1.3 nM; in assay [2] (setting [15]), 3.1 nM; in assay [3] (setting [8]), 7310 nM; in assay [3] (setting [12]), 5.9 nM; in assay [4] (setting [9]), 0.9 nM.
In the case of `O=S(=O)(C1CC1)n1cc(-c2nccc(Nc3cc(N[C@H]4CC[C@@H](CCO)CC4)c(-c4ccn(C(F)F)n4)cn3)n2)cn1` [Example 135, 2-((1s,4s)-4-((2-((2-(1-(Cyclopropylsulfonyl)-1H-pyrazol-4-yl)pyrimidin-4-yl)amino)-5-(1-(difluoromethyl)-1H-pyrazol-3-yl)pyridin-4-yl)amino)cyclohexyl)ethan-1-ol], the IC50 in assay [1] (setting [6]) was 2.1 nM; in assay [1] (setting [11]) it was 0.5 nM; in assay [3] (setting [8]) it was above 10000 nM; in assay [3] (setting [12]), 5.7 nM; in assay [4] (setting [9]), 1.1 nM; in assay [4] (setting [13]) it was 0.7 nM. In addition, the IC50 in assay [5] (setting [10]) worked out at 58 nM; in assay [5] (setting [14]), 4.5 nM.
Regarding `CC(C)(O)[C@H]1CC[C@@H](Nc2nc(Nc3ccnc(-c4cnn(S(=O)(=O)C5CC5)c4)c3)ncc2-c2ccn(C(F)F)n2)CC1` [Example 365, 2-((1s,4s)-4-((2-((2-(1-(Cyclopropylsulfonyl)-1H-pyrazol-4-yl)pyridin-4-yl)amino)-5-(1-(difluoromethyl)-1H-pyrazol-3-yl)pyrimidin-4-yl)amino)cyclohexyl)propan-2-ol], the IC50 in assay [1] (setting [16]) came to 2.3 nM; in assay [3] (setting [17]) it was 306 nM; in assay [4] (setting [18]) it was 45.4 nM; in assay [5] (setting [19]), 48.4 nM.
`CC(C)(O)c1nc(-c2cnc(Nc3ccnc(-c4cnn(S(=O)(=O)C5CC5)c4)n3)cc2N[C@H]2CC[C@@](C)(O)CC2)cs1` [Example 93, (1s,4s)-4-((2-((2-(1-(Cyclopropylsulfonyl)-1H-pyrazol-4-yl)pyrimidin-4-yl)amino)-5-(2-(2-hydroxypropan-2-yl)thiazol-4-yl)pyridin-4-yl)amino)-1-methylcyclohexan-1-ol]: the IC50 in assay [2] (setting [7]) is 4 nM; in assay [3] (setting [8]), above 10000 nM; in assay [4] (setting [9]), 5.3 nM; in assay [5] (setting [10]) it was 15.7 nM.
In the case of `Cn1cc(C#Cc2cc(Nc3ccnc(-c4cnn(S(=O)(=O)C5CC5)c4)n3)ncc2-c2cnn(C3CC3)c2)cn1` [Example 1, N-(5-(1-Cyclopropyl-1H-pyrazol-4-yl)-4-((1-methyl-1H-pyrazol-4-yl)ethynyl)pyridin-2-yl)-2-(1-(cyclopropylsulfonyl)-1H-pyrazol-4-yl)pyrimidin-4-amine], the IC50 in assay [1] (setting [11]) turned out to be 5.9 nM; in assay [2] (setting [15]), 99 nM; in assay [3] (setting [12]), 88.5 nM; in assay [4] (setting [13]) it was 63 nM.
